From paper PMC4965013, “Open Source Drug Discovery with the Malaria Box Compound Collection for Neglected Diseases and Beyond” (PLoS Pathogens, 2016)
Read-outs that look alike come from different tables or passages of the source. Each block holds one compound with its values, some of them ahead of it.

Tests used:
[1] = tested on: P. falciparum 3D7 trophozoites; test: Metabolomic fingerprint profiling LC-MS; type: cell-based, Plasmodium falciparum; parameters: UDP-D-glucose / ADP-D-glucose: unit not given here; details: for Acetyllysine / N-acetyl-L-ornithine / N-carbamoyl-L-aspartate / NADPH / dAMP / dCMP / dTDP / dTMP / dTTP / dihydroorotate / orotate / DLH / DLS/SDL/SID / PD / PEE / PVNF / 3-phosphoglycerate / ADP-D-glucose / ATP / CDP / D-sedoheptulose-1/7-phosphate / FAD / GMP / NAD+ / NADP+ / Octoluse Bisphosphate / Pyroglutamic acid / UDP-D-glucose / UDP-D-glucuronate / UDP-N-acetyl-glucosamine / UDP / UMP / UTP / a-ketoglutarate / citrate/isocitrate / cytidine / dATP / dGMP/AMP / fumarate / glucose-1/6-phosphate / glycerate / guanine / guanosine / hypoxanthine / indole / inosine / nicotinate / ornithine / phosphoenolpyruvate / pyruvate / ribose-phosphate / sarcosine/alanine / sn-glycerol-3-phosphate / succinate/methylmalonic acid / uridine / xanthosine: S2 Table Metabolomics; for Acetyllysine: metabolite Acetyllysine; for N-acetyl-L-ornithine: metabolite N-acetyl-L-ornithine; for N-carbamoyl-L-aspartate: metabolite N-carbamoyl-L-aspartate; for NADPH: metabolite NADPH; for dAMP: metabolite dAMP; for dCMP: metabolite dCMP; for dTDP: metabolite dTDP; for dTMP: metabolite dTMP; for dTTP: metabolite dTTP; for dihydroorotate: metabolite dihydroorotate; for orotate: metabolite orotate; for DLH: peptide DLH; for DLS/SDL/SID: peptide DLS/SDL/SID; for PD: peptide PD; for PEE: peptide PEE; for PVNF: peptide PVNF; for 3-phosphoglycerate: metabolite 3-phosphoglycerate; for ADP-D-glucose: metabolite ADP-D-glucose; for ATP: metabolite ATP; for CDP: metabolite CDP; for CDP / D-sedoheptulose-1/7-phosphate / GMP / Octoluse Bisphosphate / UDP / UMP / UTP / citrate/isocitrate / dGMP/AMP / fumarate / glucose-1/6-phosphate / glycerate / guanine / guanosine / inosine / pyruvate / sarcosine/alanine / succinate/methylmalonic acid / uridine / xanthosine: change in metabolite level after compound treatment; for D-sedoheptulose-1/7-phosphate: metabolite D-sedoheptulose-1/7-phosphate; for FAD: metabolite FAD; for GMP: metabolite GMP; for NAD+: metabolite NAD+; for NADP+: metabolite NADP+; for Octoluse Bisphosphate: metabolite Octoluse Bisphosphate; for Pyroglutamic acid: metabolite Pyroglutamic acid; for UDP-D-glucose: metabolite UDP-D-glucose; for UDP-D-glucuronate: metabolite UDP-D-glucuronate; for UDP-N-acetyl-glucosamine: metabolite UDP-N-acetyl-glucosamine; for UDP: metabolite UDP; for UMP: metabolite UMP; for UTP: metabolite UTP; for a-ketoglutarate: metabolite a-ketoglutarate; for citrate/isocitrate: metabolite citrate/isocitrate; for cytidine: metabolite cytidine; for dATP: metabolite dATP; for dGMP/AMP: metabolite dGMP/AMP; for fumarate: metabolite fumarate; for glucose-1/6-phosphate: metabolite glucose-1/6-phosphate; for glycerate: metabolite glycerate; for guanine: metabolite guanine; for guanosine: metabolite guanosine; for hypoxanthine: metabolite hypoxanthine; for indole: metabolite indole; for inosine: metabolite inosine; for 2_3-Diphosphoglyceric acid / 4-phosphopantothenate / 6-phospho-D-gluconate / FMN / IMP / Pyrophosphate / Sedoheptoluse bisphosphate / cyclic-AMP / glutathione disulfide / lactate / myo-inositol: metabolite level change after treatment; for nicotinate: metabolite nicotinate; for ornithine: metabolite ornithine; for phosphoenolpyruvate: metabolite phosphoenolpyruvate; for pyruvate: metabolite pyruvate; for ribose-phosphate: metabolite ribose-phosphate; for sarcosine/alanine: metabolite sarcosine/alanine; for sn-glycerol-3-phosphate: metabolite sn-glycerol-3-phosphate; for succinate/methylmalonic acid: metabolite succinate/methylmalonic acid; for uridine: metabolite uridine; for xanthosine: metabolite xanthosine
P. falciparum 3D7 = test: [3H]-hypoxanthine growth inhibition, modified HCO3- or O2; type: cell-based; details: for IC50: Plasmodium falciparum
P. falciparum = test: EC50 listed in S2 Table Metabolomics (used to set the concentration tested); type: cell-based; details: Plasmodium falciparum; EC50 used for Factor_XEC50 in metabolomics; read-out: EC50_nM
[2] = 3D7, read-out: P. falciparum 3D7 IC50 1% O2, 1% O2 hypoxia
[3] = 3D7, read-out: P. falciparum 3D7 IC50 5% O2
[4] = 3D7, read-out: P. falciparum 3D7 IC50 HCO3- (2g/L), standard media
[5] = 3D7, HCO3- reduced media, read-out: P. falciparum 3D7 IC50 HCO3- reduced

EC50 (P. falciparum): 205 nM
SMILES: CCOC(=O)c1cn(CC)c2cc(N(C)CCc3ccc(OC)c(OC)c3)c(F)cc2c1=O [MMV665977]
Acetyllysine [1]: -0.2007
N-acetyl-L-ornithine [1]: 0.023
N-carbamoyl-L-aspartate [1]: 3.959
NADPH [1]: -0.01115
dAMP [1]: 0.7523
dCMP [1]: 0.5464
dTDP [1]: 0.1785
dTMP [1]: 0.2344
dTTP [1]: -0.3388
dihydroorotate [1]: 4.609
orotate [1]: -0.8094
DLH [1]: -0.4948
DLS/SDL/SID [1]: -0.3029
PD [1]: 0.1633
PEE [1]: -0.1468
PVNF [1]: -0.5192
3-phosphoglycerate [1]: -0.3617
ADP-D-glucose [1]: 0.08874
ATP [1]: -0.1759
CDP [1]: 0.4208
D-sedoheptulose-1/7-phosphate [1]: 0.7585
FAD [1]: 0.2291
GMP [1]: -0.3238
NAD+ [1]: 0.1079
NADP+ [1]: 0.05477
Octoluse Bisphosphate [1]: -0.07826
Pyroglutamic acid [1]: -0.2687
UDP-D-glucose [1]: 0.1563
UDP-D-glucuronate [1]: 0.07018
UDP-N-acetyl-glucosamine [1]: 0.07391
UDP [1]: 0.2133
UMP [1]: -0.8829
UTP [1]: -1.518
a-ketoglutarate [1]: -0.594
citrate/isocitrate [1]: -0.7044
cytidine [1]: 0.327
dATP [1]: 0.6974
dGMP/AMP [1]: -0.4295
fumarate [1]: 0.007291
glucose-1/6-phosphate [1]: 0.2816
glycerate [1]: -0.4808
guanine [1]: 0.3502
guanosine [1]: 0.225
hypoxanthine [1]: -0.2655
indole [1]: -0.1099
inosine [1]: 0.2015
2_3-Diphosphoglyceric acid [1]: 0.344
4-phosphopantothenate [1]: -0.03263
6-phospho-D-gluconate [1]: 0.2163
FMN [1]: 0.1874
IMP [1]: 0.1512
Pyrophosphate [1]: 0.2053
Sedoheptoluse bisphosphate [1]: 0.01379
cyclic-AMP [1]: 0.02919
glutathione disulfide [1]: 0.2163
lactate [1]: -0.4098
myo-inositol [1]: -0.567
nicotinate [1]: -0.4053
ornithine [1]: 0.1382
phosphoenolpyruvate [1]: -0.3385
pyruvate [1]: -0.6681
ribose-phosphate [1]: -0.2449
sarcosine/alanine [1]: 0.1312
sn-glycerol-3-phosphate [1]: 0.2048
succinate/methylmalonic acid [1]: -0.4008
uridine [1]: -0.5319
xanthosine [1]: -0.3168
fold change (IC50normal/ IC50hypoxia) (P. falciparum 3D7): 4.1
IC50 (P. falciparum 3D7; [2]): 85 nM
IC50 (P. falciparum 3D7; [3]): 345 nM

EC50 (P. falciparum): 433 nM
SMILES: O=C(NCC(c1ccsc1)N1CCCCCC1)c1ccc(C(F)(F)F)cc1 (stereo not drawn) [MMV396672]
Acetyllysine [1]: -0.3412
N-acetyl-L-ornithine [1]: 0.04406
N-carbamoyl-L-aspartate [1]: 1.501
NADPH [1]: 1.59
dAMP [1]: -0.1547
dCMP [1]: -0.6707
dTDP [1]: -0.2295
dTMP [1]: -0.1132
dTTP [1]: -0.02683
dihydroorotate [1]: 1.3113
orotate [1]: -0.2374
DLH [1]: 0.2454
DLS/SDL/SID [1]: 0.4945
PD [1]: -0.2062
PEE [1]: 0.3834
PVNF [1]: 0.4792
3-phosphoglycerate [1]: 0.01662
ADP-D-glucose [1]: 0.1495
ATP [1]: 0.06805
CDP [1]: -0.3083
D-sedoheptulose-1/7-phosphate [1]: -0.1874
FAD [1]: 0.01705
GMP [1]: -0.121
NAD+ [1]: -0.07697
NADP+ [1]: 0.1144
Octoluse Bisphosphate [1]: -0.0874
Pyroglutamic acid [1]: -0.2718
UDP-D-glucose [1]: 0.05361
UDP-D-glucuronate [1]: 0.1556
UDP-N-acetyl-glucosamine [1]: -0.04862
UDP [1]: -0.327
UMP [1]: -1.306
UTP [1]: -0.1422
a-ketoglutarate [1]: -0.6396
citrate/isocitrate [1]: -0.6773
cytidine [1]: 0.6424
dATP [1]: 0.05116
dGMP/AMP [1]: -0.08656
fumarate [1]: -0.2118
glucose-1/6-phosphate [1]: 0.01846
glycerate [1]: -1.2197
guanine [1]: -0.7457
guanosine [1]: -1.987
hypoxanthine [1]: 0.2737
indole [1]: 0.1693
inosine [1]: -0.393
2_3-Diphosphoglyceric acid [1]: -0.1323
4-phosphopantothenate [1]: -0.391
6-phospho-D-gluconate [1]: -0.02288
FMN [1]: 0.06346
IMP [1]: -0.1805
Pyrophosphate [1]: -0.05249
Sedoheptoluse bisphosphate [1]: -0.2083
cyclic-AMP [1]: -0.07949
glutathione disulfide [1]: -0.4263
lactate [1]: -0.6757
myo-inositol [1]: -1.04
nicotinate [1]: -1.005
ornithine [1]: 0.1454
phosphoenolpyruvate [1]: -0.3004
pyruvate [1]: -1.162
ribose-phosphate [1]: 0.03374
sarcosine/alanine [1]: -0.5204
sn-glycerol-3-phosphate [1]: -0.07409
succinate/methylmalonic acid [1]: -0.4318
uridine [1]: -0.8839
xanthosine [1]: -0.8196
fold change (IC50reduced/IC50normal) (P. falciparum 3D7): 2.6
IC50 (P. falciparum 3D7; [4]): 425 nM
IC50 (P. falciparum 3D7; [5]): 1120 nM

SMILES: CCN(CC)CCNc1ccnc2cc(Cl)ccc12 [MMV006087]
Acetyllysine [1]: -0.6709
N-acetyl-L-ornithine [1]: -0.3158
N-carbamoyl-L-aspartate [1]: 0.2408
NADPH [1]: 1.332
dAMP [1]: 1.732
dCMP [1]: 0.4187
dTDP [1]: 0.1999
dTMP [1]: 1.797
dTTP [1]: -0.4289
dihydroorotate [1]: 0.1541
orotate [1]: -0.4098
DLH [1]: -1.609
DLS/SDL/SID [1]: -1.645
PD [1]: -0.5241
PEE [1]: 0.8188
PVNF [1]: -2.104
3-phosphoglycerate [1]: -0.1063
ADP-D-glucose [1]: 0.134
ATP [1]: -0.2173
CDP [1]: 0.2969
D-sedoheptulose-1/7-phosphate [1]: -0.3976
FAD [1]: -0.08711
GMP [1]: 0.04645
NAD+ [1]: -0.09966
NADP+ [1]: 0.09641
Octoluse Bisphosphate [1]: 0.7357
Pyroglutamic acid [1]: -0.2816
UDP-D-glucose [1]: -0.03029
UDP-D-glucuronate [1]: -0.03795
UDP-N-acetyl-glucosamine [1]: -0.1287
UDP [1]: -0.01186
UMP [1]: -0.1675
UTP [1]: -0.4234
a-ketoglutarate [1]: -1.012
citrate/isocitrate [1]: -0.5672
cytidine [1]: 0.4735
dATP [1]: -0.2015
dGMP/AMP [1]: 1.373
fumarate [1]: -0.3281
glucose-1/6-phosphate [1]: -0.3642
glycerate [1]: -1.245
guanine [1]: -0.2729
guanosine [1]: -1.735
hypoxanthine [1]: 0.3732
indole [1]: 0.02177
inosine [1]: -0.5366
2_3-Diphosphoglyceric acid [1]: -0.3682
4-phosphopantothenate [1]: -0.474
6-phospho-D-gluconate [1]: -0.3619
FMN [1]: 0.01066
IMP [1]: -0.05089
Pyrophosphate [1]: -0.2464
Sedoheptoluse bisphosphate [1]: 1.503
cyclic-AMP [1]: -0.4094
glutathione disulfide [1]: -0.5661
lactate [1]: -0.8938
myo-inositol [1]: -1.322
nicotinate [1]: -1.055
ornithine [1]: 0.317
phosphoenolpyruvate [1]: -0.3268
pyruvate [1]: -1.42
ribose-phosphate [1]: -0.4165
sarcosine/alanine [1]: -0.8094
sn-glycerol-3-phosphate [1]: -0.2401
succinate/methylmalonic acid [1]: -0.2149
uridine [1]: -1.004
xanthosine [1]: -1.365
fold change (IC50normal/ IC50hypoxia) (P. falciparum 3D7): 2.2
fold change (IC50reduced/IC50normal) (P. falciparum 3D7): 2.0
IC50 (P. falciparum 3D7; [2]): 18 nM
IC50 (P. falciparum 3D7; [3]): 40 nM
IC50 (P. falciparum 3D7; [4]): 46 nM
IC50 (P. falciparum 3D7; [5]): 94 nM
EC50 (P. falciparum): 58.1 nM
